# Results reported in ChEMBL document CHEMBL5038644 (J Med Chem, 2022).
# Calls of active or inactive are those of the source. The rule behind the calls is not given here. Bridge positions count the residues as written; N and C are the ends. Square brackets hold non-standard residues; d marks the D form. Peptide text beside a SMILES is read from it. AllylGly = C=CC[C@H](N)C(=O)O; Nle = CCCC[C@H](N)C(=O)O; Ava = NCCCCC(=O)O
# How the values were obtained:
# [1] = target: T1, Apelin receptor (Homo sapiens) (UniProt P35414); assay: Agonist activity at human APJ expressed in HEK293 cell membrane assessed as maximal efficacy for recruitment of beta-arrestin2 to receptor by BRET-based beta-arrestin2 assay relative to control; type: functional; settings: filed as agonist
# T1 sequence (whole entry): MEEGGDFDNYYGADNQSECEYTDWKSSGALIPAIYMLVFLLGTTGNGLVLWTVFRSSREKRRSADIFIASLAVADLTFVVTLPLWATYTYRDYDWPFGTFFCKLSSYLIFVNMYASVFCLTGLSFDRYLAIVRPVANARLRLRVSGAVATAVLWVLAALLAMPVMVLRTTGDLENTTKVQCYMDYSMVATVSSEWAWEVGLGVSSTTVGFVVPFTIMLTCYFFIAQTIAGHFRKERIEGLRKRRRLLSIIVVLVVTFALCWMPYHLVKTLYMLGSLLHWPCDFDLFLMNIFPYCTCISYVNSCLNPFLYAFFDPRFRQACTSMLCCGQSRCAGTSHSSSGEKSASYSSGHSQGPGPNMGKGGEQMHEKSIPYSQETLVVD
# [2] = target: T1, Apelin receptor (Homo sapiens); assay: Agonist activity at human APJ expressed in HEK293 cells assessed as maximal efficacy for dissociation of G alphai1 from the G beta gamma subunit by BRET-based G protein dissociation assay relative to control; type: functional, cell-based; settings: filed as agonist
# [3] = target: T1, Apelin receptor (Homo sapiens); assay: Agonist activity at human APJ expressed in HEK293 cell membrane assessed as maximal efficacy for recruitment of PDZ-RhoGEF Galphai1 to cell membrane by BRET-based G protein dissociation assay relative to control; type: functional
# Apelin receptor [4] = target: T2, Apelin receptor (Homo sapiens, UniProt P35414); assay: Displacement of [125I]-[Nle75,Tyr77][Pyr1]-Ape13 from YFP-tagged human APJ expressed in HEK293 cell membranes assessed as inhibition constant incubated for 1 hr by scintillation counting method
# T2 sequence (P35414 whole entry): T1 sequence (whole entry)
# Rattus norvegicus [5] = assay: Cardioprotective activity in Sprague-Dawley rat assessed as effect on left ventricular fractional shortening at 0.2 micromol/kg, sc after 3 hrs by echocardiography; type: functional, organism-based; settings: dose 0.2 µmol/kg
# [6] = AUC in Sprague-Dawley rat plasma at 3 mg/kg, iv by LC/MS-MS analysis; type: ADME, organism-based; design: dose 3 mg/kg; settings: in vivo
# Rattus norvegicus [7] = assay: Cardioprotective activity in Sprague-Dawley rat assessed as effect on left ventricular fractional shortening at 2 micromol/kg, sc after 3 hrs by echocardiography relative to control; type: functional; settings: dose 2 µmol/kg
# [8] = Stability in Sprague-Dawley rat plasma at 3 mg/kg, iv upto 2 hrs by LC/MS-MS analysis; type: ADME, organism-based; settings: in vivo
# Rattus norvegicus [9] = assay: Cardioprotective activity in Sprague-Dawley rat assessed as effect on cardiac output in sprague-dawley rat at 2 micromol/kg, sc after 3 hrs by echocardiography relative to control; type: functional; settings: dose 2 µmol/kg
# Rattus norvegicus [10] = assay: Hypotensive effect in Sprague-Dawley rat assessed as decrease in blood pressure at 19.6 to 65 nmol/kg, iv relative to control; type: functional; settings: dose 19.6-65 nmol/kg
# [11] = Stability in Sprague-Dawley rat plasma assessed as half life measured upto 24 hrs by UPLC-MS analysis; type: ADME, cell-free
# Rattus norvegicus [12] = assay: Cardioprotective activity in Sprague-Dawley rat assessed as effect on left ventricular fractional shortening at 2 micromol/kg, sc after 6 hrs by echocardiography relative to control; type: functional; settings: dose 2 µmol/kg
# Rattus norvegicus [13] = assay: Cardioprotective activity in Sprague-Dawley rat assessed as effect on cardiac output in sprague-dawley rat at 0.2 micromol/kg, sc after 3 hrs by echocardiography; type: functional, organism-based; settings: dose 0.2 µmol/kg
# Rattus norvegicus [14] = assay: Cardioprotective activity in Sprague-Dawley rat assessed as effect on cardiac output in sprague-dawley rat at 2 micromol/kg, sc after 6 hrs by echocardiography relative to control; type: functional; settings: dose 2 µmol/kg
# Apelin receptor [15] = target: T2, Apelin receptor; assay: Agonist activity at human APJ expressed in HEK293 cell membrane assessed as recruitment of PDZ-RhoGEF Galpha12 to cell membrane by BRET-based G protein dissociation assay; type: functional
SMILES,Emax [1],Emax [2],Emax ([3]; filed as agonist),Ki (Apelin receptor [4]),further results
CCCC[C@H](NC(=O)[C@@H]1CCCN1C(=O)CNC(=O)[C@H](CCCCN)NC(=O)[C@@H]1CCN(S(=O)(=O)c2ccccc2[N+](=O)[O-])C/C=C/C[C@H](NC(=O)[C@H](CCCNC(=N)N)NC(=O)[C@@H]2CCC(=O)N2)C(=O)N[C@@H](CCCNC(=N)N)C(=O)N[C@@H](CC(C)C)C(=O)N[C@@H](CO)C(=O)N1)C(=O)N1CCC[C@H]1C(=O)N[C@@H](Cc1ccccc1)C(=O)O,98%,102%,92%,,
CC(C)C[C@@H]1NC(=O)[C@H](CCCNC(=N)N)NC(=O)[C@@H](N)C/C=C\C[C@@H](C(=O)N[C@@H](CCCCN)C(=O)NCC(=O)N2CCC[C@H]2C(=O)N[C@@H](C)C(=O)O)NC(=O)[C@H](CO)NC1=O (H-[AllylGly]RLS[AllylGly]KGPA-OH; staple (Z) 1-5),,,,> 10000 nM,
CCCC[C@H](NC(=O)[C@@H]1CCCN1C(=O)CNC(=O)[C@H](CCCCN)NC(=O)[C@@H]1CCN(S(=O)(=O)c2ccccc2[N+](=O)[O-])C/C=C/C[C@H](N)C(=O)N[C@@H](CCCNC(=N)N)C(=O)N[C@@H](CC(C)C)C(=O)N[C@@H](CO)C(=O)N1)C(=O)N1CCC[C@H]1C(=O)N[C@@H](Cc1ccccc1)C(=O)O,82%,106%,93%,,
CCCC[C@H](NC(=O)[C@@H]1CCCN1C(=O)CNC(=O)[C@H](CCCCN)NC(=O)[C@@H]1CCNC/C=C/C[C@H](NC(=O)[C@H](CCCNC(=N)N)NC(=O)[C@@H]2CCC(=O)N2)C(=O)N[C@@H](CCCNC(=N)N)C(=O)N[C@@H](CC(C)C)C(=O)N[C@@H](CO)C(=O)N1)C(=O)N1CCC[C@H]1C(=O)N[C@@H](Cc1ccccc1)C(=O)O,86%,100%,95%,,
CCCC[C@H](NC(=O)[C@@H]1CCCN1C(=O)CNC(=O)[C@H](CCCCN)NC(=O)[C@@H]1C/C=C\C[C@H](NC(=O)[C@H](CCCNC(=N)N)NC(=O)[C@@H]2CCC(=O)N2)C(=O)N[C@@H](CCCNC(=N)N)C(=O)N[C@@H](CC(C)C)C(=O)N[C@@H](CO)C(=O)N1)C(=O)N1CCC[C@H]1C(=O)N[C@@H](Cc1ccccc1)C(=O)O,98%,101%,98%,,
CC(C)C[C@@H]1NC(=O)[C@H](CCCNC(=N)N)NC(=O)[C@@H](N)C/C=C\C[C@@H](C(=O)N[C@@H](CCCCN)C(=O)NCC(=O)N2CCC[C@H]2C(=O)N[C@H](Cc2cccc3ccccc23)C(=O)O)NC(=O)[C@H](CO)NC1=O,70%,103%,,,Activity (Rattus norvegicus [5]): Active; AUC [6]: 1.33 mg·min/mL; Activity (Rattus norvegicus [7]): 22%; Stability [8]: Stable; Activity (Rattus norvegicus [9]): 22%; Activity (Rattus norvegicus [10]): -24 mmHg; Emax [3]: 3%
CCCC[C@H](NC(=O)[C@@H]1CCCN1C(=O)CNC(=O)[C@@H]1C/C=C\C[C@H](N)C(=O)N[C@@H](CCCNC(=N)N)C(=O)N[C@@H](CC(C)C)C(=O)N[C@@H](CO)C(=O)N1)C(=O)O (H-[AllylGly]RLS[AllylGly]GP[Nle]-OH; staple (Z) 1-5),,,,> 10000 nM,
CC(C)C[C@@H]1NC(=O)[C@H](CCCNC(=N)N)NC(=O)[C@@H](N)C/C=C\C[C@@H](C(=O)N[C@@H](CCCCN)C(=O)NCC(=O)N2CCC[C@H]2C(=O)N[C@H](Cc2ccc3ccccc3c2)C(=O)O)NC(=O)[C@H](CO)NC1=O,55%,105%,40%,,half-life [11]: > 1440 min; Activity (Rattus norvegicus [5]): Active; Activity (Rattus norvegicus [12]): 17%; AUC [6]: 8.8 mg·min/mL; Activity (Rattus norvegicus [7]): 22%; Activity (Rattus norvegicus [13]): Active; Stability [8]: Stable; Activity (Rattus norvegicus [9]): 22%; Activity (Rattus norvegicus [10]): inactive; Activity (Rattus norvegicus [14]): 16%
CCCC[C@H](NC(=O)[C@@H]1CCCN1C(=O)CNC(=O)[C@H](CCCCN)NC(=O)[C@@H]1CCN(C)C/C=C/C[C@H](NC(=O)[C@H](CCCNC(=N)N)NC(=O)[C@@H]2CCC(=O)N2)C(=O)N[C@@H](CCCNC(=N)N)C(=O)N[C@@H](CC(C)C)C(=O)N[C@@H](CO)C(=O)N1)C(=O)N1CCC[C@H]1C(=O)N[C@@H](Cc1ccccc1)C(=O)O,90%,102%,97%,,
CCCC[C@H](NC(=O)[C@@H]1CCCN1C(=O)CNC(=O)[C@H](CCCCN)NC(=O)[C@@H]1Cc2cncn2C/C=C/C[C@H](NC(=O)[C@H](CCCNC(=N)N)NC(=O)[C@@H]2CCC(=O)N2)C(=O)N[C@@H](CCCNC(=N)N)C(=O)N[C@@H](CC(C)C)C(=O)N[C@@H](CO)C(=O)N1)C(=O)N1CCC[C@H]1C(=O)N[C@@H](Cc1ccccc1)C(=O)O,115%,99%,98%,,Activity (Rattus norvegicus [10]): -36 mmHg
CCCC[C@H](NC(=O)[C@@H]1CCCN1C(=O)CNC(=O)[C@H](CCCCN)NC(=O)[C@@H]1CCCC[C@H](NC(=O)[C@H](CCCNC(=N)N)NC(=O)[C@@H]2CCC(=O)N2)C(=O)N[C@@H](CCCNC(=N)N)C(=O)N[C@@H](CC(C)C)C(=O)N[C@@H](CO)C(=O)N1)C(=O)N1CCC[C@H]1C(=O)N[C@@H](Cc1ccccc1)C(=O)O,75%,102%,100%,,EC50 (Apelin receptor [15]): 63 nM
CC(C)C[C@@H]1NC(=O)[C@H](CCCNC(=N)N)NC(=O)[C@@H](N)C/C=C\C[C@@H](C(=O)N[C@@H](CCCCN)C(=O)O)NC(=O)[C@H](CO)NC1=O (H-[AllylGly]RLS[AllylGly]K-OH; staple (Z) 1-5),,,,> 10000 nM,
CC(C)C[C@@H]1NC(=O)[C@H](CCCNC(=N)N)NC(=O)[C@@H](N)C/C=C\C[C@@H](C(=O)N[C@@H](CCCCN)C(=O)NCC(=O)N2CCC[C@H]2C(=O)N[C@H](Cc2ccc(O)cc2)C(=O)O)NC(=O)[C@H](CO)NC1=O,54%,100%,45%,,
CC(C)C[C@@H]1NC(=O)[C@H](CCCNC(=N)N)NC(=O)[C@@H](N)C/C=C\C[C@@H](C(=O)N[C@@H](CCCCN)C(=O)NCC(=O)N2CCC[C@H]2C(=O)N[C@H](Cc2ccc(OCc3ccccc3)cc2)C(=O)O)NC(=O)[C@H](CO)NC1=O,78%,104%,48%,,
C=CC[C@H](NC(=O)[C@H](CO)NC(=O)[C@H](CC(C)C)NC(=O)[C@H](CCCNC(=N)N)NC(=O)[C@@H](N)CC=C)C(=O)N[C@@H](CCCCN)C(=O)NCC(=O)N1CCC[C@H]1C(=O)N[C@@H](CCCC)C(=O)N1CCC[C@H]1C(=O)N[C@@H](Cc1ccccc1)C(=O)O,,,,170 nM,half-life [11]: 6 min
CCCC[C@H](NC(=O)[C@@H]1CCCN1C(=O)CNC(=O)[C@H](CCCCN)NC(=O)[C@@H]1C/C=C\C[C@H](N)C(=O)N[C@@H](CCCNC(=N)N)C(=O)N[C@@H](CC(C)C)C(=O)N[C@@H](CO)C(=O)N1)C(=O)O,69%,99%,59%,,Activity (Rattus norvegicus [10]): -13 mmHg
"CCCC[C@H](NC(=O)[C@@H]1CCCN1C(=O)CNC(=O)[C@H](CCCCN)NC(=O)[C@@H]1CC(=O)NCCCC[C@H](NC(=O)[C@H](CCCNC(=N)N)NC(=O)[C@@H]2CCC(=O)N2)C(=O)N[C@@H](CCCNC(=N)N)C(=O)N[C@@H](CC(C)C)C(=O)N[C@@H](CO)C(=O)N1)C(=O)N1CCC[C@H]1C(=O)N[C@@H](Cc1ccccc1)C(=O)O (HELM PEPTIDE1{[Glp].R.K.R.L.S.D.K.G.P.[Nle].P.F}$PEPTIDE1,PEPTIDE1,3:R3-7:R3$$$V2.0)",,,,39 nM,
CCCC[C@H](NC(=O)[C@@H]1CCCN1C(=O)CCCCNC(=O)[C@@H]1C/C=C\C[C@H](N)C(=O)N[C@@H](CCCNC(=N)N)C(=O)N[C@@H](CC(C)C)C(=O)N[C@@H](CO)C(=O)N1)C(=O)O (H-[AllylGly]RLS[AllylGly][Ava]P[Nle]-OH; staple (Z) 1-5),,,,> 10000 nM,
CCCC[C@H](NC(=O)[C@@H]1CCCN1C(=O)CNC(=O)[C@H](CCCCN)NC(=O)[C@@H]1C/C=C\C[C@H](N)C(=O)N[C@@H](CCCNC(=N)N)C(=O)N[C@@H](CC(C)C)C(=O)N[C@@H](CO)C(=O)N1)C(=O)N1CCC[C@H]1C(=O)N[C@@H](Cc1ccccc1)C(=O)O,98%,100%,98%,,Activity (Rattus norvegicus [10]): -27 mmHg
CCCC[C@H](NC(=O)[C@@H]1CCCN1C(=O)CNC(=O)[C@H](CCCCN)NC(=O)[C@@H]1C/C=C\C[C@H](NC(=N)N)C(=O)N[C@@H](CCCNC(=N)N)C(=O)N[C@@H](CC(C)C)C(=O)N[C@@H](CO)C(=O)N1)C(=O)N1CCC[C@H]1C(=O)N[C@@H](Cc1ccccc1)C(=O)O,92%,103%,105%,,
